Laboratory results from patent publication US20160222014A1, “COMPOUNDS FOR REGULATING FAK AND/OR SRC PATHWAYS” (ASANA BIOSCIENCES, LLC, priority 2013, published 2016).

Biological target: T1, Phospho Src(Y416) (Homo sapiens, UniProt P12931)
T1 construct: endogenous in cells; host or cells: Panc1
Test: Phospho Src(Y416) Sandwich ELISA
Type: cell-based
Conditions: Panc1; read-out: pSrc EC50 (μM) Panc1
Procedure: E. Phospho Src(Y416) Sandwich ELISA
Phospho Src(Y416) Sandwich ELISA kit was obtained from Cell Signaling Tech.
(i) Reagent Preparation • 1. All microwell strips were brought to rt before use. • 2. 1× Wash Buffer was prepared by diluting 20× Wash Buffer (included in each PathScan® Sandwich ELISA Kit) in MilliQ® water or equivalently purified water. • 3. 1× Cell Lysis Buffer from CST #9803: 20 mM Tris (pH 7.5), 150 mM NaCl, 1 mM ethylene diamine tetraacetate (EDTA), 1 mM ethylene glycol-bis(2-aminoethyl)-N,N,N′,N′-tetraacetic acid (EGTA), 1% Triton™ X-100, 2.5 mM sodium pyrophosphate, 1 mM b-glycerophosphate, 1 mM Na3VO4, 1 μg/mL leupeptin. This buffer was stored at 4° C. for short-term use (1-2 weeks).
(ii) Preparing Cell Lysates • 1. The media was aspirated. The cells were treated by adding fresh media containing inhibitor for 1 h. The compound of Example 214 was used as reference. • 2. The cells were harvested under non-denaturing conditions by removing media and rinsing cells once with ice-cold PBS. • 3. PBS was removed, 0.5 mL ice-cold 1× Cell Lysis Buffer plus 1 mM phenylmethylsulfonylfluoride (PMSF) was added to each plate (10 cm in diameter) and the plate incubated on ice for 5 min. • 4. The cells were scraped off of the plate, transferred to an appropriate tube, and kept on ice. • 5. The lysates were sonicated on ice. • 6. Microcentrifugation was performed for 10 min at 4° C. and the supernatant transferred to a new tube. The supernatant was the cell lysate and was stored at −80° C. in single-use aliquots.
(iii) Test Procedure • 1. After the microwell strips reached rt, the required number of microwells were broken off. The microwells were placed in the strip holder. Unused microwells were resealed and stored at 4° C. immediately. • 2. 100 μL of Sample Diluent (supplied in each PathScan® Sandwich ELISA Kit, blue color) was added to a micro centrifuge tube. 100 μL of cell lysate was transferred into the tube and vortexed for a few seconds. […] Individual data sheets for each kit provided information regarding an appropriate dilution factor for lysates and kit assay results. However, dilution factors were titrated when specific cell lysates are used. • 3. 100 μL of each diluted cell lysate were added to the appropriate well. It was then sealed with tape and pressed firmly onto top of microwells. The plate was incubated for 2 h at 37° C. Alternatively, the plate was incubated overnight at 4° C., which gave the best detection of target protein. • 4. The tape was gently removed and the wells washed: • a. The plate contents were discarded into a receptacle. • b. Each well was washed 4 times with 1× Wash Buffer, 200 μL. • c. For each wash, plates were struck on fresh towels hard enough to remove the residual solution in each well, but wells were not allowed to completely dry at any time. • d. The underside of all wells was cleaned with a lint-free tissue. • 5. 100 μL of Detection Antibody (green color) was added to each well, sealed with tape and the plate incubated for 1 h at 37° C. • 6. The wash procedure was repeated as in Step 4. • 7. 100 μL of HRP-linked secondary antibody (red color) was added to each well, sealed with tape and the plate incubated plate for 30 min at 37° C. • 8. The wash procedure was repeated as in Step 4. • 9. 100 μL of TMB Substrate was added to each well, sealed with tape and the plate incubated for 10 min at 37° C. or 30 min at 25° C. • 10. 100 μL of STOP Solution was added to each well and shaken gently for a few seconds. Initial color of positive reaction was blue, which changed to yellow upon addition of STOP Solution. • 11. The results were read. • a. Visual Determination—read within 30 min after adding STOP Solution. • b. Spectrophotometric Determination—the underside of wells were wiped with a lint-free tissue and absorbance read at 450 nm within 30 min after adding STOP Solution.

T1 sequence (P12931 whole entry): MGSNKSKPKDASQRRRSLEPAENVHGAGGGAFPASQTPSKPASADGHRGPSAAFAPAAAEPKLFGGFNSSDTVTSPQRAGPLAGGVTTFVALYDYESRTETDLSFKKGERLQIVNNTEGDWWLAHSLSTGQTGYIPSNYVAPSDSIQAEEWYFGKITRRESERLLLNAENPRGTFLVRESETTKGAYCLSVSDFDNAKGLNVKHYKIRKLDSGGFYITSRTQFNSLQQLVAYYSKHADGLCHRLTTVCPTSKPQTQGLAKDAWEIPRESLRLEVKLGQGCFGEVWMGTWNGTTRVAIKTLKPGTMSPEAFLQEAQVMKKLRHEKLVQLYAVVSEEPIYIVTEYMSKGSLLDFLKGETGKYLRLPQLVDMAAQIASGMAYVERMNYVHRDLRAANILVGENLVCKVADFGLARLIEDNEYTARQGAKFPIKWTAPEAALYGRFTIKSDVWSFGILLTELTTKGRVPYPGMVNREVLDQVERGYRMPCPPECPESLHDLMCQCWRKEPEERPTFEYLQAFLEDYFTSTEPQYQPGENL

EC50, > 1 µM:
O=C1CCc2cc(Nc3ncc4cnn(Cc5ccccc5OC(F)F)c4n3)ccc2N1 [Example 21]
FC(F)Oc1ccccc1Cn1ccc2cnc(Nc3ccc4ncsc4c3)nc21 [Example 36]
CC(=O)Nc1cccc(Nc2cc3c(cn2)cnn3Cc2ccccc2OC(F)F)c1 [Example 64]
FC(F)Oc1ccccc1Cn1ncc2cnc(Nc3ccc4ncsc4c3)cc21 [Example 82]
CN(c1ncccc1Cn1ncc2cnc(Nc3ccc4[nH]c(=O)[nH]c4c3)cc21)S(C)(=O)=O [Example 142]
O=C1CCc2cc(Nc3ncc4ccn(S(=O)(=O)c5cccc6cccnc56)c4n3)ccc2N1 [Example 169]
CN(c1ncccc1Cn1ccc2cnc(Nc3ccc(NCCO)cc3)nc21)S(C)(=O)=O [Example 201]
CN(c1ncccc1Cn1ncc2cnc(Nc3ccc4c(c3)CCC(=O)N4)nc21)S(C)(=O)=O [Example 202]
O=S(=O)(c1cccc2nsnc12)n1ccc2cnc(Nc3ccc(N4CCNCC4)cc3)nc21 [Example 253]
Cn1cc(Nc2ncc3ccn(S(=O)(=O)c4cccc5cccnc45)c3n2)cn1 [Example 318]
COc1ccccc1S(=O)(=O)n1ncc2cnc(Nc3ccc(N4CCNCC4)cc3)nc21 [Example 335]
CN(c1ncccc1Cn1ccc2cnc(Nc3ccc(N4CCCC4CO)cc3)nc21)S(C)(=O)=O (stereo not drawn) [Example 536]
